PubChem BioAssay (NCI)
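Values below derive from 48-hour exposures of cells grown in 96-well plates, with endpoints linearly interpolated between the two concentrations bracketing the appropriate inhibition level. At the TGI there is no net growth.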

What was measured:
Test in all cases: DTP human tumour cell line panel, 48 h
[1] = test system: 786-0 renal
[2] = test system: A498 renal
[3] = test system: A549 NSCLC
[4] = test system: ACHN renal
[5] = test system: BT-549 breast
[6] = test system: CAKI-1 renal
[7] = test system: CCRF-CEM leukemia
[8] = test system: COLO 205 colon
[9] = test system: DU-145 prostate
[10] = test system: EKVX NSCLC
[11] = test system: HCT-116 colon
[12] = test system: HCT-15 colon
[13] = test system: HL-60(TB) leukemia
[14] = test system: HOP-62 NSCLC
[15] = test system: HOP-92 NSCLC
[16] = test system: HS 578T breast
[17] = test system: HT29 colon
[18] = test system: IGROV1 ovarian
[19] = test system: K-562 leukemia
[20] = test system: KM12 colon
[21] = test system: LOX IMVI melanoma
[22] = test system: M14 melanoma
[23] = test system: MALME-3M melanoma
[24] = test system: MCF7 breast
[25] = test system: MDA-MB-231 breast
[26] = test system: MDA-MB-435
[27] = test system: MDA-N
[28] = test system: MOLT-4 leukemia
[29] = test system: NCI-H23 lung
[30] = test system: NCI-H460 lung
[31] = test system: NCI-H522 lung
[32] = test system: NCI/ADR-RES ovarian
[33] = test system: OVCAR-3 ovarian
[34] = test system: OVCAR-4 ovarian
[35] = test system: OVCAR-5 ovarian
[36] = test system: OVCAR-8 ovarian
[37] = test system: PC-3 prostate
[38] = test system: RPMI-8226 leukemia
[39] = test system: SF-268 CNS
[40] = test system: SF-295 CNS
[41] = test system: SF-539 CNS
[42] = test system: SK-MEL-2 melanoma
[43] = test system: SK-MEL-28 melanoma
[44] = test system: SK-MEL-5 melanoma
[45] = test system: SK-OV-3 ovarian
[46] = test system: SN12C renal
[47] = test system: SNB-19 CNS
[48] = test system: SR leukemia
[49] = test system: SW-620 colon
[50] = test system: T-47D breast
[51] = test system: TK-10 renal
[52] = test system: U251 CNS
[53] = test system: UACC-257 melanoma
[54] = test system: UACC-62 melanoma
[55] = test system: UO-31 renal
[56] = test system: HCC-2998 colon
[57] = test system: NCI-H226 lung
[58] = test system: RXF 393 renal
[59] = test system: SNB-75 CNS

## N#Cc1cc(N(CCCl)CCCl)c([N+](=O)[O-])cc1[N+](=O)[O-]
[1]
  TGI: > 100 µM
[2]
  TGI: > 100 µM
[3]
  TGI: > 100 µM
[4]
  TGI: > 100 µM
[5]
  TGI: > 100 µM
[6]
  TGI: 69.8 µM
[7]
  TGI: 98.2 µM
[8]
  TGI: > 100 µM
[9]
  TGI: > 100 µM
[10]
  TGI: > 100 µM
[11]
  TGI: > 100 µM
[12]
  TGI: > 100 µM
[13]
  TGI: 80.9 µM
[14]
  TGI: > 100 µM
[15]
  TGI: > 100 µM
[16]
  TGI: > 100 µM
[17]
  TGI: > 100 µM
[18]
  TGI: > 100 µM
[19]
  TGI: > 100 µM
[20]
  TGI: > 100 µM
[21]
  TGI: > 100 µM
[22]
  TGI: > 100 µM
[23]
  TGI: > 100 µM
[24]
  TGI: > 100 µM
[25]
  TGI: > 100 µM
[26]
  TGI: > 100 µM
[27]
  TGI: > 100 µM
[28]
  TGI: > 100 µM
[29]
  TGI: > 100 µM
[30]
  TGI: > 100 µM
[31]
  TGI: > 100 µM
[32]
  TGI: > 100 µM
[33]
  TGI: > 100 µM
[34]
  TGI: > 100 µM
[35]
  TGI: > 100 µM
[36]
  TGI: > 100 µM
[37]
  TGI: > 100 µM
[38]
  TGI: > 100 µM
[39]
  TGI: > 100 µM
[40]
  TGI: > 100 µM
[41]
  TGI: > 100 µM
[42]
  TGI: > 100 µM
[43]
  TGI: > 100 µM
[44]
  TGI: > 100 µM
[45]
  TGI: > 100 µM
[46]
  TGI: > 100 µM
[47]
  TGI: > 100 µM
[48]
  TGI: 35.8 µM
[49]
  TGI: > 100 µM
[50]
  TGI: 57.2 µM
[51]
  TGI: > 100 µM
[52]
  TGI: > 100 µM
[53]
  TGI: > 100 µM
[54]
  TGI: > 100 µM
[55]
  TGI: > 100 µM

## CC(C)(C)OC(=O)CC(NC(=O)OC(C)(C)C)C(=O)NC(C(=O)O)C(O)c1ccccc1 (stereo unspecified)
[1]
  TGI: > 100 µM
[2]
  TGI: > 100 µM
[3]
  TGI: > 100 µM
[4]
  TGI: > 100 µM
[5]
  TGI: > 100 µM
[6]
  TGI: > 100 µM
[7]
  TGI: > 100 µM
[8]
  TGI: > 100 µM
[9]
  TGI: > 100 µM
[10]
  TGI: > 100 µM
[56]
  TGI: > 100 µM
[11]
  TGI: > 100 µM
[12]
  TGI: > 100 µM
[14]
  TGI: > 100 µM
[16]
  TGI: > 100 µM
[17]
  TGI: > 100 µM
[18]
  TGI: > 100 µM
[19]
  TGI: > 100 µM
[20]
  TGI: > 100 µM
[21]
  TGI: > 100 µM
[22]
  TGI: > 100 µM
[23]
  TGI: > 100 µM
[24]
  TGI: > 100 µM
[25]
  TGI: > 100 µM
[26]
  TGI: > 100 µM
[27]
  TGI: > 100 µM
[28]
  TGI: > 100 µM
[57]
  TGI: > 100 µM
[29]
  TGI: > 100 µM
[30]
  TGI: > 100 µM
[31]
  TGI: > 100 µM
[32]
  TGI: > 100 µM
[33]
  TGI: > 100 µM
[34]
  TGI: > 100 µM
[35]
  TGI: > 100 µM
[36]
  TGI: > 100 µM
[37]
  TGI: > 100 µM
[38]
  TGI: > 100 µM
[58]
  TGI: > 100 µM
[39]
  TGI: > 100 µM
[40]
  TGI: > 100 µM
[41]
  TGI: > 100 µM
[42]
  TGI: > 100 µM
[43]
  TGI: > 100 µM
[44]
  TGI: > 100 µM
[45]
  TGI: > 100 µM
[47]
  TGI: > 100 µM
[59]
  TGI: > 100 µM
[49]
  TGI: > 100 µM
[50]
  TGI: > 100 µM
[51]
  TGI: > 100 µM
[52]
  TGI: > 100 µM
[53]
  TGI: > 100 µM
[54]
  TGI: > 100 µM
[55]
  TGI: > 100 µM

## COC(=O)Cc1c(/C=C/C(C)(C)n2cnc(CCN3C(=O)CCC3=O)c2)[nH]c2ccccc12
[1]
  TGI: > 100 µM
[2]
  TGI: > 100 µM
[3]
  TGI: > 100 µM
[4]
  TGI: > 100 µM
[5]
  TGI: > 100 µM
[6]
  TGI: > 100 µM
[7]
  TGI: > 100 µM
[8]
  TGI: > 100 µM
[9]
  TGI: > 100 µM
[10]
  TGI: > 100 µM
[11]
  TGI: > 100 µM
[12]
  TGI: > 100 µM
[13]
  TGI: > 100 µM
[15]
  TGI: > 100 µM
[16]
  TGI: 89.3 µM
[17]
  TGI: > 100 µM
[18]
  TGI: > 100 µM
[19]
  TGI: > 100 µM
[20]
  TGI: > 100 µM
[21]
  TGI: > 100 µM
[22]
  TGI: > 100 µM
[23]
  TGI: 97.8 µM
[24]
  TGI: > 100 µM
[25]
  TGI: > 100 µM
[26]
  TGI: > 100 µM
[27]
  TGI: > 100 µM
[28]
  TGI: > 100 µM
[57]
  TGI: > 100 µM
[29]
  TGI: > 100 µM
[30]
  TGI: > 100 µM
[31]
  TGI: > 100 µM
[32]
  TGI: > 100 µM
[33]
  TGI: > 100 µM
[34]
  TGI: > 100 µM
[35]
  TGI: > 100 µM
[36]
  TGI: > 100 µM
[37]
  TGI: > 100 µM
[58]
  TGI: > 100 µM
[39]
  TGI: > 100 µM
[40]
  TGI: > 100 µM
[41]
  TGI: > 100 µM
[42]
  TGI: > 100 µM
[43]
  TGI: > 100 µM
[44]
  TGI: > 100 µM
[45]
  TGI: > 100 µM
[46]
  TGI: > 100 µM
[47]
  TGI: > 100 µM
[59]
  TGI: > 100 µM
[48]
  TGI: > 100 µM
[49]
  TGI: > 100 µM
[50]
  TGI: 60.1 µM
[51]
  TGI: > 100 µM
[52]
  TGI: > 100 µM
[53]
  TGI: > 100 µM
[54]
  TGI: > 100 µM
[55]
  TGI: > 100 µM
